Several values for one entry are separate records, joined by “and”; a condition that tells them apart may be missing. Equal entries are not always repeated. Where two headings read alike, the source gives them in different places.
What was measured:
[1] = test system: T. cruzi intracellular amastigotes; assay: In vitro anti-T. cruzi intracellular amastigote growth inhibition assay (tdTomato fluorescence over 72 hours, Vero cells); type: cell-based, Trypanosoma cruzi; settings: Trypanosoma cruzi, Vero
Experimental: (§1) The in vitro anti-T. cruzi amastiogote activity assay was performed and optimized based on the protocol described previously. The change in tdTomato fluorescence intensity was determined as a measurement of growth over 72 hours of culture. For assaying drug effects on extracellular amastigotes, trypomastigotes were collected from infected Vero cell cultures and converted in acidic media as previously described. Amastigotes (50,000/well) were incubated with 2-fold serial dilutions of compounds for 48 hours. The ATP production was used as an indication of growth in this case, and was measured by ATPlite Luminescence ATP Detection Assay System (PerkinElmer). Both fluorescence and luminescence were read using a BioTek Synergy Hybrid Multi-Mode reader equipped with the software Gene5 v 2.0 (BioTek). The dose-response curve was generated by […] analysis with GraphPad Prism v9.4.0 (GraphPad Software).

[2] = in vivo
T. cruzi Brazil strain [3] = test system: T. cruzi Brazil strain; design: method as in PMID 23945371; settings: cited from earlier work
[4] = test system: CPSF3-OE T. cruzi intracellular amastigotes; assay: microbe, parasite or virus in culture; type: cell-based; settings: Trypanosoma cruzi, read-out: CPSF3-OE IC50, intracellular amastigotes
Experimental: as §1
The CPSF3 gene was amplified using primers ‘[…]’ and ‘[…]’, and integrated into the pTrex vector [47] by NEBuilder HiFi DNA assembly (New England Biolabs). The construct of pTrex-CPSF was then transfected into Brazil tdTomato epimastigotes and selected by 60ug/ml blasticidin.
To confirm the CPSF overexpression in the selected transfectants, RNA was extracted as previously described and converted to cDNA using SuperScript Reverse Transcriptase (Invitrogen). Quantitative PCR reactions were performed in triplicate on the C1000 Touch Bio-Rad CFX96 real-time PCR detection system for CPSF using primer sets CPSF-1 (5'-[…]-3' and 5'-[…]-3') and CPSF-2 (5'-[…]-3' and 5'-[…]-3') in both control and CPSF over-expressing parasites, and the expression level was normalized to tubulin which was amplified using primers: ‘[…]’ and ‘[…]’.

[5] = test system: TcCBP KO T. cruzi intracellular amastigotes; assay: microbe, parasite or virus in culture; type: cell-based; settings: Trypanosoma cruzi, read-out: TcCBP KO IC50
Experimental: as §1
The CBPs knockout was produced using ribonucleoprotein (RNP) complexes as previously described. Briefly, Brazil tdTomato strain epimastigotes were electroporated with RNP complexes containing SaCas9 and an sgRNA targeting CBP gene TcBrA4_0048170, plus a repair template containing stop codons in all three reading frames and the M13 sequence for use as a PCR anchor. The sgRNA targeted the ‘[…]” sequence. After 2 days of recovery, single-cell clones were derived by depositing epimastigotes into a 96-well plate at a density of 0.5 cell/well by using a MoFlo Astrios EQ cell sorter (Beckman Coulter). DNA isolation was performed for clones, and primer pair of 5’-[…]-3’ and 5’- […] -3’ was used for amplifying the wild type allele, while primer pair of M13-F: 5’- […] -3’ and 5’- […] -3’ was used for amplifying the mutant allele.

T. cruzi Brazil strain [6] = assay: Mouse cure assays (daily oral treatment, immunosuppression, qPCR of skeletal muscle, blood microscopy, hemoculture); type: in vivo, C57BL/6 mice; settings: individual mice
Experimental: Male or female C57BL/6 mice were intraperitoneally infected with 10^4 trypomastigotes of the Brazil strain. Mouse infection was confirmed at 25-30 dpi by detection of CD8^+ T cells specific against the T. cruzi TSKb20 peptide in blood. Compounds resuspended in 1% carboxymethyl cellulose and 0.1% Tween 80, were administered daily by gavage at the specified concentrations. In order to optimally detect persistent infection, immune responses in the mice were suppressed by intraperitoneal injection of four doses of cyclophosphamide every 2-3 days (200 mg/kg/day), beginning one week after the end of therapeutic treatment. At the end of the immunosuppression regimen, peripheral blood was checked under light microscope for parasites and cultured in LDNT media. Mouse skeletal muscle samples were obtained at the end of the immunosuppression and processed for T. cruzi-DNA detection by qPCR as previously described.

[7] = test system: broad array of mammalian enzymes, receptors and ion channels; assay: Preliminary safety pharmacology panel; type: binding
[8] = In vitro micronucleus study; type: cell-based
[9] = test system: representative cytochrome P450 enzymes; assay: Cytochrome P450 inhibition; type: in vitro ADME; settings: 10 uM
[10] = High dose 7-day toxicology study with exposure; settings: 7-day toxicology studies / rats
[11] = test system: T. cruzi CL strain in Vero cells; assay: RNA-seq: parasite mRNA relative to host cell (Vero) mRNA; type: cell-based, Trypanosoma cruzi
Experimental: The drug concentration used for treatment was set at 5 times the IC50. Samples were collected at several time points for RNA extraction as previously described. rRNA-depleted RNA library construction and RNA sequencing using Illumina Nextseq 75PE was carried out by Georgia Genomics and Bioinformatics Core (GGBC, University of Georgia, Georgia). […] The mapping rate was quantified by HTseq v0.6.1 [51].

T. cruzi = settings: cited from earlier work
[12] = in vitro, Fig. 1a, Extended Data Fig. 1a, read-out: T. cruzi IC50

In the case of `O=C(Nc1ccc2c(c1)B(O)OC2)c1ccc(F)cc1C(F)(F)F` [AN4169], the IC50 [1, 12] is listed as 350 nM, the rodent tolerability [2] is listed as “insufficient therapeutic margin” and the “cure of infected mice” value (T. cruzi Brazil strain [3]; mice infected with the T. cruzi Brazil strain) is listed as 100%.
For `Cc1c(C(=O)N[C@H](C(=O)OCc2ccc(F)cc2)C(C)(C)O)ccc2c1B(O)OC2` [AN14817], the activity at 0.00407 µM ([1]; 72 h, read-out: % of maximum, WT, [uM] -2.39 [sic], single replicates) was 79%, the IC50 ([1]; read-out: WT IC50, WT intracellular amastigotes, control of CPSF3-OE comparison) was 6.3 nM and the IC50 ([1]; read-out: WT IC50, WT intracellular amastigotes, control of TcCBP KO comparison) was 6.3 nM. It also gave an IC50 [1, 12] of 12 nM, an IC50 [4] of 24.8 nM and an IC50 [5] of 2200 nM. For the same molecule, the “Parasite equivalent/ 50 ng of DNA of skeletal muscle” value (T. cruzi Brazil strain [6]; Fig. 3b, mice treated for 40 days) was 0.12 Parasite equivalent/ 50 ng of DNA and 0.09 Parasite equivalent/ 50 ng of DNA and 0.00383 Parasite equivalent/ 50 ng of DNA and 0.0341 Parasite equivalent/ 50 ng of DNA and 0.00725 Parasite equivalent/ 50 ng of DNA and 0.00351 Parasite equivalent/ 50 ng of DNA and 0.0145 Parasite equivalent/ 50 ng of DNA and 0.17 Parasite equivalent/ 50 ng of DNA, the “Parasite equivalent/ 50 ng of DNA of skeletal muscle” value (T. cruzi Brazil strain [6]; Fig. 3c, mice treated for 20 days) was 0.30 Parasite equivalent/ 50 ng of DNA and 0.59 Parasite equivalent/ 50 ng of DNA and 0.42 Parasite equivalent/ 50 ng of DNA and 0.29 Parasite equivalent/ 50 ng of DNA and 0.40 Parasite equivalent/ 50 ng of DNA and the “affinity for mammalian enzymes, receptors and ion channels” value [7] was “little to no affinity”. For the same molecule, the “genotoxicity, Ames” value (Ames study) was “non-genotoxic”, the “genotoxicity, in vitro micronucleus” value [8] was “non-genotoxic” and the “inhibition of representative cytochrome P450 enzymes” value [9] was “did not demonstrate significant inhibition”. The “dose proportionality of exposure” value [10] was “non-dose proportional exposure”.
In the case of `O=C(Cn1ccnc1[N+](=O)[O-])NCc1ccccc1` [benznidazole, reference compound], the “RNA-seq reads mapped to African green monkey” value ([11]; 0hpt) is reported as 52, the “RNA-seq reads mapped to T.cruzi CL Brener” value ([11]; 0hpt) is reported as 17 and the RNA-seq reads unmapped ([11]; 0hpt) is reported as 31. The “RNA-seq reads mapped to African green monkey” value ([11]; 12hpt) was 61, the “RNA-seq reads mapped to T.cruzi CL Brener” value ([11]; 12hpt) was 14 and the RNA-seq reads unmapped ([11]; 12hpt) was 25. The “RNA-seq reads mapped to African green monkey” value ([11]; 24hpt) was 62, the “RNA-seq reads mapped to T.cruzi CL Brener” value ([11]; 24hpt) was 12 and the RNA-seq reads unmapped ([11]; 24hpt) was 27. For the same molecule, the “cure with 20 days of treatment” value (T. cruzi Brazil strain [3]; mice) was “only partially effective in generating cure”, the “failures in treatment trial” value (T. cruzi; T. cruzi-infected NHPs, ref Tarleton, et al., in preparation) was greater than 60% and the cure rate (T. cruzi; cyno macaques, ref unpublished result of the authors) was ~ 30%.

Reference: paper PMC9519446, “Discovery of an Orally Active Benzoxaborole Prodrug Effective in the Treatment of Chagas Disease in Non-human Primates” (Nature microbiology, 2022)
